Source: ChEMBL document CHEMBL1157348, “The alkaloid conessine and analogues as potent histamine H3 receptor antagonists” (J Med Chem, 2008)
Activity calls are given as the source filed them. No cut-off for these calls is given here.

Experiments:
Histamine H4 receptor = Histamine H4 receptor (Homo sapiens, UniProt Q9H3N8); assay: Displacement of [3H]histamine from human histamine H4 receptor expressed in HEK cells; assay type: cell-based, HEK293; settings: read-out: Ki
Estrogen receptor = target: T1, Estrogen receptor (Homo sapiens, UniProt P03372); assay: Binding affinity at estrogen receptor
T1 sequence (P03372 whole entry): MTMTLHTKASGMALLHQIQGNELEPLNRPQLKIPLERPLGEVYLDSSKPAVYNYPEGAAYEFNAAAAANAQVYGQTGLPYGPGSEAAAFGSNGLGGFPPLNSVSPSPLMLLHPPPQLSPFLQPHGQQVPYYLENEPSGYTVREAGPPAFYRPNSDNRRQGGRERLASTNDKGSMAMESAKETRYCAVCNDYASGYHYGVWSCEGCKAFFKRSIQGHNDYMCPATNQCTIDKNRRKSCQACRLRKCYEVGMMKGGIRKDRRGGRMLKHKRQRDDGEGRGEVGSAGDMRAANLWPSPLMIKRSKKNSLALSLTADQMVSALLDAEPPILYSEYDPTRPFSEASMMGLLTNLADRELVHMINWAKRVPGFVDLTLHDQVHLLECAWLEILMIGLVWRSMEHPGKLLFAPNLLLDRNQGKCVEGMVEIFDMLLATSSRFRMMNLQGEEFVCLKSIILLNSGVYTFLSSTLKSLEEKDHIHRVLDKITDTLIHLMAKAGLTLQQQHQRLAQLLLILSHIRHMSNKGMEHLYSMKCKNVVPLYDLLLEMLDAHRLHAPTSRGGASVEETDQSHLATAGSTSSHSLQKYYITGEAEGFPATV

Glucocorticoid receptor = target: T2, Glucocorticoid receptor (Homo sapiens, UniProt P04150); assay: Binding affinity at glucocorticoid receptor
T2 sequence (P04150 whole entry): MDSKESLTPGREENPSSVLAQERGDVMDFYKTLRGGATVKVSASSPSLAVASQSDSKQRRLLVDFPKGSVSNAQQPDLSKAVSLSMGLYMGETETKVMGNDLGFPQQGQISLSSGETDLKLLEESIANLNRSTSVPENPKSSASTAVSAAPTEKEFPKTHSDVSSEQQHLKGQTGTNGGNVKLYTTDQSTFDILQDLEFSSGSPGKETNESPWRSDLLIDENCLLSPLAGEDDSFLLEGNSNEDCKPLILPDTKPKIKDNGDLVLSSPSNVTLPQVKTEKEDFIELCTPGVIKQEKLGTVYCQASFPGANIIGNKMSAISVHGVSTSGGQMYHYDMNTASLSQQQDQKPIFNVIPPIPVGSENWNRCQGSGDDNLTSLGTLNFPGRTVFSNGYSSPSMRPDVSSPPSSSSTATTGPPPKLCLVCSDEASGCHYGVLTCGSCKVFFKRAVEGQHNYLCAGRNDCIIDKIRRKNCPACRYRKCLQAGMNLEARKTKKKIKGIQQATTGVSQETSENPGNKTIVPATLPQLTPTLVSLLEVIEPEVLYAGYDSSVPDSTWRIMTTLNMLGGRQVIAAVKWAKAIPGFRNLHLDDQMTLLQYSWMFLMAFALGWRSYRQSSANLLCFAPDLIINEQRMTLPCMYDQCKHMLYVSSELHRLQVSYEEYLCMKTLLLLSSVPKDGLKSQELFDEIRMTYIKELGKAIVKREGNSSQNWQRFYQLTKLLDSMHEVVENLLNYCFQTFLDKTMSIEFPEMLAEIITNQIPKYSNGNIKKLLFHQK

[1] = Oral bioavailability in rat; assay type: ADME, organism-based; settings: in vivo
Mus musculus = assay: Increase in learning and memory performance in mouse at 0.01 mg/kg, ip after 24 hrs by passive avoidance test; assay type: functional, organism-based; design: dose 0.01 mg/kg
Histamine H2 receptor = Histamine H2 receptor (Homo sapiens, UniProt P25021); assay: Displacement of [3H]tiotidine from human histamine H2 receptor; settings: read-out: Ki
Chain of Histamine H2 receptor (P25021 whole entry): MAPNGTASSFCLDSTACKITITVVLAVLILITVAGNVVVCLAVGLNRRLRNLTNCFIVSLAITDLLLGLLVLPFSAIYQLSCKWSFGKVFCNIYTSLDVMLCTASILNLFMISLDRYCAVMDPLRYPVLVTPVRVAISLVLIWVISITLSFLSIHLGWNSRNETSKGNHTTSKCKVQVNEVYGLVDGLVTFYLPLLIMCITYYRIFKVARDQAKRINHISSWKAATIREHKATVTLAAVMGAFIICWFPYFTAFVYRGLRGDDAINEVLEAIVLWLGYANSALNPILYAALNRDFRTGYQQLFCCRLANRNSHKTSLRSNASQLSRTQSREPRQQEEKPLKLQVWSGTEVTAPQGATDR

Androgen receptor = target: T3, Androgen receptor (Homo sapiens, UniProt P10275); assay: Binding affinity at androgen receptor
T3 sequence (P10275 whole entry): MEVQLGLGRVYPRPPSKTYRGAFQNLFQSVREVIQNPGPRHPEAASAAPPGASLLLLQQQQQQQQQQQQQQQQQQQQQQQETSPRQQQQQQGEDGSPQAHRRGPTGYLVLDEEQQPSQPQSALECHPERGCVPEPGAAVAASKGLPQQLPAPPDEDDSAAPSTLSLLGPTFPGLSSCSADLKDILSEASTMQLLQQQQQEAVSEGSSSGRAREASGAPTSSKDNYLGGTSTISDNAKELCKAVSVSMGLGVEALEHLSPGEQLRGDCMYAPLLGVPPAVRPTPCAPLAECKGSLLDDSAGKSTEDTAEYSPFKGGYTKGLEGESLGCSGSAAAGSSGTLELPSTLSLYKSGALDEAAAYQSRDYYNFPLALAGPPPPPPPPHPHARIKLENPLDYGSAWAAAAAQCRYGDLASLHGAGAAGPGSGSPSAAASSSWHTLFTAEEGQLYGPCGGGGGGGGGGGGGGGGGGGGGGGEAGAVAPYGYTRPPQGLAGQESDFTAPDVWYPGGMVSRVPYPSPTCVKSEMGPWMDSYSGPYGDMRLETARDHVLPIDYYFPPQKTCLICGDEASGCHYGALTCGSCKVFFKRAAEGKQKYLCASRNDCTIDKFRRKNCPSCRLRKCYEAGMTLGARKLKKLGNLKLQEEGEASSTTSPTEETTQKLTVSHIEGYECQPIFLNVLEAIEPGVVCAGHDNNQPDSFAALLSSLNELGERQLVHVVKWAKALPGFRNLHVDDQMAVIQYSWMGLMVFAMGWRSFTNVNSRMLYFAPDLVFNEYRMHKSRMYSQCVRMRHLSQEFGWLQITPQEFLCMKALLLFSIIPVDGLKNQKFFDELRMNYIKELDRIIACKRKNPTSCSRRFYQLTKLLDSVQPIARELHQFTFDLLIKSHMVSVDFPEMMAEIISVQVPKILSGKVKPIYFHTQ

[2] = Binding affinity at cholinergic receptor
Histamine H3 receptor [3] = target: T4, Histamine H3 receptor (Rattus norvegicus, UniProt Q9QYN8); assay: Displacement of [3H]NAMH from histamine H3 receptor in rat cortex; settings: read-out: Ki
T4 sequence (Q9QYN8 whole entry): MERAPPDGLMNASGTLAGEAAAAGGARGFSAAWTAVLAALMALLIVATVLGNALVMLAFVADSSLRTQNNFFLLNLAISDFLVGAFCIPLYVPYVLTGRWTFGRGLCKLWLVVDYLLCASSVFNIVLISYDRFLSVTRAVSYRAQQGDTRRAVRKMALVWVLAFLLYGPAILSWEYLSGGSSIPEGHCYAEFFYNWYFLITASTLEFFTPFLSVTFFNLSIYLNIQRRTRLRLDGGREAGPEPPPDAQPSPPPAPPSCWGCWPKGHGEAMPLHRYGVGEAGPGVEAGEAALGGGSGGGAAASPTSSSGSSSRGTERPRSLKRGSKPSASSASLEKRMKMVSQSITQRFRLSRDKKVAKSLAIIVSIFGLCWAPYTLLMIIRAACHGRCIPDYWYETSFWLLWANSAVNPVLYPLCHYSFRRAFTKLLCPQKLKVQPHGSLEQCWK

[4] = Inhibition of CYP enzyme; assay type: ADME
Histamine H3 receptor [5] = target: Histamine H3 receptor (Homo sapiens, UniProt Q9Y5N1); assay: Antagonist activity at H3 receptor assessed as inhibition of forskolin-induced cAMP release by SPA; assay type: functional
Chain of Histamine H3 receptor (Homo sapiens, UniProt Q9Y5N1) (Q9Y5N1 whole entry): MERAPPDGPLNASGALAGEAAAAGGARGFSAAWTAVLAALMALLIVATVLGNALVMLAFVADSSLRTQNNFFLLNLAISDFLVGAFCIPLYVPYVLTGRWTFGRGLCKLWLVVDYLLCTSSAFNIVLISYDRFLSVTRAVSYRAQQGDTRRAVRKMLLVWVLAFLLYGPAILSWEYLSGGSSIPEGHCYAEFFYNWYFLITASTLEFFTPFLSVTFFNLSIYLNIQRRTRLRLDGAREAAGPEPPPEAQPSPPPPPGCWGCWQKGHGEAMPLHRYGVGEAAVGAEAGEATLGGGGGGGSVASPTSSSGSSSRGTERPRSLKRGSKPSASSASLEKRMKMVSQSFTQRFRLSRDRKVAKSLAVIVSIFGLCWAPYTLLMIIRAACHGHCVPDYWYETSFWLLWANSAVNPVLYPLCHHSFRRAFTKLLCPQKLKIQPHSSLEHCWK

[6] = Binding affinity at serotonin receptor
Histamine H3 receptor [7] = target: T4, Histamine H3 receptor; assay: Displacement of [3H]NAMH from rat full length histamine H3 receptor expressed in rat C6 cells; assay type: cell-based; settings: read-out: Ki
Rattus norvegicus = assay: Toxicity in rat assessed as CNS side effects at 1.3 to 13 mg/kg, ip; assay type: organism-based; design: dose 1.3-13 mg/kg, route intraperitoneal; settings: in vivo

Chain of Histamine H4 receptor (Q9H3N8 whole entry): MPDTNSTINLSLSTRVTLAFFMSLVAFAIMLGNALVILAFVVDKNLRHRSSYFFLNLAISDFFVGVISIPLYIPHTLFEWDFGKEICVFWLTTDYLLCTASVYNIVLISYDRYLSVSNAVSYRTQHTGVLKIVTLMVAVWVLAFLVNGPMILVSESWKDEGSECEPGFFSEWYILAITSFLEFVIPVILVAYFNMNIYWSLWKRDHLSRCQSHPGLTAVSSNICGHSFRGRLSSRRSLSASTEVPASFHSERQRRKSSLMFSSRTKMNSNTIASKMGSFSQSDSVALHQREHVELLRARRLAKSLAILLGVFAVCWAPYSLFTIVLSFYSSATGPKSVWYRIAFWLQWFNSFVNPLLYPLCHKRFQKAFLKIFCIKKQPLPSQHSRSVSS

Compound `CN[C@@H](C(=O)N(C)[C@H]1CC[C@@]2(C)C(=CC[C@H]3[C@@H]4CC[C@@H]5[C@H](C)N(C)C[C@@]54CC[C@@H]32)C1)C(C)C` has a Ki (Histamine H4 receptor) greater than 10 µM, a Ki (Estrogen receptor) greater than 30 µM and a Ki (Glucocorticoid receptor) greater than 30 µM. For the same compound, the bioavailability [1] was 65%, the Activity (Mus musculus) was “Active” and the Ki (Histamine H2 receptor) was greater than 10 µM. The Ki (Androgen receptor) was greater than 30 µM, the Ki [2] was greater than 10 µM and the Ki (Histamine H3 receptor [3]) was 2.57 nM. It also gave an IC50 [4] greater than 10 µM, a Kb (Histamine H3 receptor [5]) of 4 nM and a Ki [6] greater than 10 µM. For the same compound, the Ki (Histamine H3 receptor [7]) was 2.57 nM and the Activity (Rattus norvegicus) was “Non-toxic”.
